Assay results from ChEMBL document CHEMBL3430912, “GSK Tres Cantos Anti-Kinetoplastid Screening (TCAKS) Data”.
pIC50: −log10 of the molar value.

Assays:
Leishmania donovani [1] = experiment: GSK_TCAKS: pIC50 Leishmania donovani Imaging: Infected Macrophages. Assay plates (384-well) were prepared by adding 250nL of compound to each well. For single shot assay, the final compound concentration was 5 uM. […] Automated image analysis was performed with a script developed on Acapella High Content Imaging and Analysis Software (PerkinElmer). Output: Percent of infected macrophage cells were reported for each well.; type: functional, organism-based, Homo sapiens; settings: THP-1
[2] = tested on: Trypanosoma brucei brucei; experiment: GSK_TCAKS: pIC50 Trypanosoma brucei viability assay using luminiscence. Assay plates (1536-well) were prepared. T. brucei cultures were harvested and counted in a CASY cell counter. A parasite suspension was prepared at a final concentration of 5 * 10^4 cells/mL in complete HMI9 medium and 6uL was dispensed to all wells containing compounds using a Multidrop Combi dispenser. 6uL of HMI9 media with 0.4% DMSO were dispensed to control columns. Plates were incubated for 24 h at 37C, 5% CO2 then tempered for 10 min at room temperature. ATP content was quantified by adding 4 uL of CellTiter-Glo Reagent (Promega) according to the manufacturer's instructions. Luminescence was measured using a ViewLux.; type: functional, organism-based; settings: Lister 427, CASY
Trypanosoma cruzi [3] = experiment: (§1) GSK_TCAKS: pIC50 Trypanosoma cruzi Imaging: Infected Cells. […] Cells were then washed once with PBS before infection. T. cruzi trypomastigotes, collected at days 5 to 8 after infection from LLC-MK2 parasite infected cultures, were allowed to swim out for 4h at 37C from a centrifuged pellet (2,500 rpm/10 min/room temperature). Trypomastigotes were then collected and counted in a CASY Cell Counter. Trypomastigotes, in supplemented DMEM, were added to H9c2 cultures in a multiplicity of infection of 1 and incubated for 18 h. Cells were washed once with PBS before incubation of the infected H9c2 monolayer with trypsin (Life-Technologies) to detach cells from the flask. Cells were counted in a CASY Cell Counter using a 150 um capillary and their density set at 5 * 10^4 cells per mL in supplemented assay DMEM. Infected H9c2 were dispensed into 384-well poly-lysine coated assay plates at 50uL per well using a Multidrop Combi dispenser. After seeding them, the plates were incubated at 37C, 5% CO2 for 72h. Cultures were then fixed and stained by addition of 50 uL of a solution containing 8% formaldehyde and 4 uM DRAQ5 DNA dye (BioStatus, UK) per well. […] Five images were collected per well for reliable statistical analysis. Automated image analysis was performed with a script developed on Acapella High Content Imaging and Analysis Software (PerkinElmer). Output: percentage of infected cells per well as a second infection marker.; type: functional, organism-based, Rattus norvegicus; settings: H9c2, 4 h
[4] = GSK_TCAKS: pIC50 HepG2 human cell line viability assay using luminiscence. […] Seeding density was checked to ensure that new mono-layers were not more than 50% confluent at the time of harvesting. Cell suspension was added to 500 mL of the same medium at a final density of 1.2 * 10^5 cells/mL. This cell suspension was dispensed (25 uL, 3000 cells per well) into 384-well clear-bottom plates using a Multidrop Combi dispenser. Prior to addition of the cell suspension, the screening compounds (250 nL) were pre-dispensed into the plates with an Echo liquid handler. Plates were incubated for 48 h at 37C, 5% CO2. After incubation, plates equilibrated at room temperature for 30 min before proceeding to develop the luminescent signal. The signal developer, CellTiter-Glo Reagent, was allowed to equilibrate at room temperature for 30 min and added to the plates (25uL per well) using a Multidrop Combi dispenser. Plates were left for 10 min at room temperature for stabilization and then read using a ViewLux.; type: toxicity, cell-based
Leishmania donovani [5] = experiment: GSK_TCAKS: pIC50 Leishmania donovani viability assay using fluorescence intensity. Assay plates (1536-well) were prepared by adding 30nL per well of compound. For single shot assay, the final compound concentration was 5uM. […] Briefly, eGFP LdBOB axenic amastigotes were harvested, fixed and counted in a CASY cell counter (Roche-Applied Science). A final concentration of 1.5 * 10^5 cells per well were prepared in amastigote media containing 500 U/mL penicillin/streptomycin (Invitrogen) and 6uL was dispensed to each experimental well using a Multidrop Combi dispenser (Thermo Scientific). 6uL of assay media was dispensed to control columns used as reference for 100% compound response. Following incubation for 72 h at 37C, 5% CO2, 2 uL of resazurin was added to each well at a final concentration of 0.5 mM in phosphate buffered saline (PBS) with IGEPAL (Sigma-Aldrich), 0.05% (v/v).; type: functional, organism-based
Leishmania donovani [6] = experiment: GSK_TCAKS: pIC50 Leishmania donovani Imaging: THP-1 Host Macrophages. Assay plates (384-well) were prepared by adding 250nL of compound to each well. For single shot assay, the final compound concentration was 5 uM. […] Automated image analysis was performed with a script developed on Acapella High Content Imaging and Analysis Software (PerkinElmer). Output: THP-1 cell count were reported for each well.; type: functional, organism-based, Homo sapiens
Trypanosoma cruzi [7] = experiment: as §1, with “H2C9” for “Trypanosoma cruzi”, “H9c2 Host Cardiomyocytes.” for “Infected Cells.”, “Number” for “percentage”, “H9c2 Host Cardiomyocytes nuclei to determine drug-related cytotoxicity.” for “infected cells per well as a second infection marker.”; type: functional, organism-based, Rattus norvegicus; settings: H9c2, 4 h
Trypanosoma cruzi [8] = experiment: GSK_TCAKS: pIC50 Trypanosoma cruzi viability assay using beta-GAL activity. This assay was run at single shot at 5uM compound concentration per well. The biological reagents consisted of NIH-3T3 host cells and trypomastigotes parasitic cells; both cell types were set to a 3.3 * 10^5 cells/mL dilution in assay DMEM by means of a CASY cell counter device using a 60um capillary. 6 uL of the mixture were dispensed per well (about 1 * 10^3 host-cells and 1 * 10^3 parasites) with a Multidrop Combi dispenser. […] In all wells, the percentage of DMSO never exceeded 0.5%. Plates incubated for four days at 37C, 5% CO2. The substrate used for the assay fluorescence intensity (FLINT) readout was resorufin-beta-D-galactopiranoside (Sigma-Aldrich) at 5uM per well. It was diluted in PBS supplemented with the soft detergent Igepal (Fluka).; type: functional, organism-based, Mus musculus; settings: Tulahuen, NIH3T3
Leishmania donovani [9] = experiment: GSK_TCAKS: pIC50 Leishmania donovani Imaging: Amastigotes/Macrophages. Assay plates (384-well) were prepared by adding 250nL of compound to each well. For single shot assay, the final compound concentration was 5 uM. […] Automated image analysis was performed with a script developed on Acapella High Content Imaging and Analysis Software (PerkinElmer). Output: Average number of amastigotes per macrophage cell were reported for each well.; type: functional, organism-based, Homo sapiens; settings: THP-1
[10] = tested on: Trypanosoma brucei brucei; experiment: GSK_TCAKS: pIC50 Trypanosoma brucei viability assay using fluorescence intensity. Assay plates (1536-well) were prepared by dispensing 25nL of compound solution per well using an Echo acoustic dispenser (Labcyte).; type: functional, organism-based; settings: Lister 427, 2 h
[11] = target: Sterol 14-alpha demethylase (Trypanosoma cruzi (strain CL Brener), UniProt Q7Z1V1); experiment: GSK_TCAKS: pIC50 CYP51 from Trypanosoma cruzi.; type: functional
Trypanosoma cruzi [12] = experiment: GSK_TCAKS: pIC50 Trypanosoma cruzi Imaging: Amastigotes/Cell. […] Cells were then washed once with PBS before infection. T. cruzi trypomastigotes, collected at days 5 to 8 after infection from LLC-MK2 parasite infected cultures, were allowed to swim out for 4h at 37C from a centrifuged pellet (2,500 rpm/10 min/room temperature). Trypomastigotes were then collected and counted in a CASY Cell Counter. Trypomastigotes, in supplemented DMEM, were added to H9c2 cultures in a multiplicity of infection of 1 and incubated for 18 h. Cells were washed once with PBS before incubation of the infected H9c2 monolayer with trypsin (Life-Technologies) to detach cells from the flask. Cells were counted in a CASY Cell Counter using a 150 um capillary and their density set at 5 * 10^4 cells per mL in supplemented assay DMEM. Infected H9c2 were dispensed into 384-well poly-lysine coated assay plates at 50uL per well using a Multidrop Combi dispenser. After seeding them, the plates were incubated at 37C, 5% CO2 for 72h. Cultures were then fixed and stained by addition of 50 uL of a solution containing 8% formaldehyde and 4 uM DRAQ5 DNA dye (BioStatus, UK) per well. […] Five images were collected per well for reliable statistical analysis. Automated image analysis was performed with a script developed on Acapella High Content Imaging and Analysis Software (PerkinElmer). Output: number of amastigotes per cell as infection level measurement.; type: functional, organism-based, Rattus norvegicus; settings: H9c2, 4 h

Sterol 14-alpha demethylase, sequence (Q7Z1V1 whole entry): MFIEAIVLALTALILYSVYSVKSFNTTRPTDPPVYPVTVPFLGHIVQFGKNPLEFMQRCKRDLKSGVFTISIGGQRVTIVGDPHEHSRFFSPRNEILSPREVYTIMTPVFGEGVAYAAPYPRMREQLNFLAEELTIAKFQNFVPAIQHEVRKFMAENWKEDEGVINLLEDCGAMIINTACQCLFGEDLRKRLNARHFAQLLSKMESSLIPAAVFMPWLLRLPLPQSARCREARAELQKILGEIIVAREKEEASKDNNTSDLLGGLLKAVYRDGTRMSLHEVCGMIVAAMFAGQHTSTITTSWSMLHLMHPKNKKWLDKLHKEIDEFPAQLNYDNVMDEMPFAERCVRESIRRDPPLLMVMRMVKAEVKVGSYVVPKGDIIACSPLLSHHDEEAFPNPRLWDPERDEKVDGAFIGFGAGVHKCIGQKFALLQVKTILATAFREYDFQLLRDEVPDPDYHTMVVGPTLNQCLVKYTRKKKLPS

SMILES | pIC50 (Leishmania donovani [1]) | pIC50 [2] | pIC50 (Trypanosoma cruzi [3]) | IC50 at 48 h [4] [µM] | pIC50 (Leishmania donovani [5]) | pIC50 (Leishmania donovani [6]) | pIC50 (Trypanosoma cruzi [7]) | pIC50 (Trypanosoma cruzi [8]) | pIC50 (Leishmania donovani [9]) | pIC50 [10] | pIC50 [11] | pIC50 (Trypanosoma cruzi [12])
Cc1nn2c(O)c3c(nc2c1-c1ccc(F)cc1)CCCC3 | < 4.30 | 6.20 | 5.70 | > 100 | 5.90 | < 4.30 | < 4.30 | 5.80 | < 4.30 | 6.40 | < 4.00 | 6.10
c1ccc(Nc2nc3ccccc3[nH]2)nc1 | 5.10 | 4.60 | 4.60 | 79.4 | 4.60 | 4.60 | 5.00 | 5.10 | 5.10 | 4.80 | < 4.00 | 5.00
CC(C)(C)Nc1nc(-c2ccccn2)nc2ccccc12 | 5.80 | 5.20 | 5.70 | 20 | 5.20 | 4.80 | 6.50 | 5.90 | 5.90 | 5.20 | < 4.00 | 5.90
Cc1cccc(Nc2nc(-c3ccccn3)cs2)n1 | 5.50 | 6.30 | 6.00 | 39.8 | 5.40 | < 4.30 | 6.20 | 6.20 | 5.70 | 6.00 | 4.70 | 6.10
COc1ccc(Nc2nc(-c3ccccn3)cs2)c(OC)c1 | 5.60 | 4.60 | 5.10 | > 100 | 5.20 | < 4.30 | 5.70 | 5.40 | 5.70 | 4.70 | 4.70 | 5.30
COC(=O)c1ccc(-c2cnc3ccc(NCc4ccccn4)nn23)cc1 | < 4.30 | 6.00 | 5.10 | 100 | 4.90 | 4.90 | < 4.30 | 5.10 | 4.80 | 6.20 | 5.90 | 5.30
O=C(Nc1cccc(S(=O)(=O)Nc2ccc(Br)cc2)c1)c1ccc([N+](=O)[O-])s1 | 6.00 | 6.40 | 6.90 | 15.8 | 6.10 | 5.00 | 5.60 | 7.00 | 6.10 | 6.70 | 5.60 | 7.00
CCc1cccc(CC)c1-n1c(SCC(=O)N2CC(=O)Nc3ccccc32)nnc1-c1cccnc1 | < 4.30 | 6.00 | 4.50 | > 100 | 4.40 | < 4.30 | < 4.30 | 4.60 | < 4.30 | 6.30 | 5.50 | 4.60
COc1ccc(C2C3CCCCC3(O)CCN2CC(=O)Nc2ccc(Cl)cc2Cl)cc1 (configuration not stated) | 5.60 | 4.60 | 5.90 | > 100 | 5.80 | < 4.30 | 4.70 | 5.55 | 6.10 | 5.10 | 5.00 | 6.10
O=C(CN1CCC2(O)CCCCC2C1c1ccc2c(c1)OCO2)Nc1ccc(Cl)cc1Cl (configuration not stated) | 5.50 | 5.10 | 5.30 | > 100 | 5.30 | < 4.30 | < 4.30 | 4.90 | 5.90 | 4.90 | 4.90 | 5.50
CC1CCCN(S(=O)(=O)c2ccc(C(=O)Nc3nc(-c4ccccn4)cs3)cc2)C1 (configuration not stated) | 6.60 | 6.40 | 6.30 | 39.8 | 5.80 | 5.30 | 5.50 | 6.40 | 6.80 | 6.70 | 5.60 | 6.60
